Our source for the AbsAC1 (concentration giving Tm-shift threshold 1.0) values is PubChem BioAssay AID687022 (Broad Institute, 2013).

The source made the active and inactive calls.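 The calls were made as follows: active = Fitted curve of melting temperature shift crosses the 1.0 threshold at or below the sample's highest valid tested concentration; inconclusive = Flat fit with activity 30 to 70, or invalid fit; inactive = Opposite direction, flat within 30, or no crossing.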

Fibroblast growth factor 22 (Homo sapiens), sequence (Q9HCT0 whole entry, looked up): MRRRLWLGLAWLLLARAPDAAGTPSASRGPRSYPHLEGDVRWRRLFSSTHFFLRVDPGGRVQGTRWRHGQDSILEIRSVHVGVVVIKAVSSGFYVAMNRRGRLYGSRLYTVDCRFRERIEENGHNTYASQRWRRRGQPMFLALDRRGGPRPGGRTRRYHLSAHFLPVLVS

The assay has as its target Fibroblast growth factor 22 (Homo sapiens) (UniProt Q9HCT0). Description: binders of human FGF22 protein, dose response, FGF22 synaptogenesis inhibitor project, biophysical, thermal shift, cherry-pick (AID 687022). The conditions noted are these: recombinant FGF22 thermal shift, SYPRO orange melting.
On to `Cn1cc([N+](=O)[O-])c(C(=O)Nc2ccc3nc(-c4ccccc4)[nH]c3c2)n1`, for which the AbsAC1 (concentration giving Tm-shift threshold 1.0) was 16 µM.

Regarding `CCn1ccnc1CN(C)C(=O)c1ccc2nc(Cc3ccc(OC)cc3)oc2c1`, the AbsAC1 (concentration giving Tm-shift threshold 1.0) is 11.9 µM.

On to `C/C=C/c1ccc2c(c1)O[C@@H](CN(C)C(=O)Nc1cccc(F)c1)[C@@H](C)CN([C@@H](C)CO)S2(=O)=O`, for which the AbsAC1 (concentration giving Tm-shift threshold 1.0) is 7.47 µM.

Take `CCOC(=O)c1ccc(S(=O)(=O)Nc2cc(C(=O)O)ccc2Cl)cc1`: the AbsAC1 (concentration giving Tm-shift threshold 1.0) was 26.2 µM.

As for `Cc1cccc(NC(=O)Nc2ccc(S(N)(=O)=O)cc2)c1`, the AbsAC1 (concentration giving Tm-shift threshold 1.0) was 4.36 µM.

In the case of `O=C1Nc2cc(Cl)c(Cl)cc2N(O)N1c1ccc(Cl)cc1`, the AbsAC1 (concentration giving Tm-shift threshold 1.0) was 4.98 µM.

Regarding `S=C(Nc1ccc(N2CCOCC2)cc1)Nc1ccc2snnc2c1`, the AbsAC1 (concentration giving Tm-shift threshold 1.0) was 9.95 µM.

For `S=C(Nc1ccc(Cl)cc1)Nc1ccc2cn[nH]c2c1`, the AbsAC1 (concentration giving Tm-shift threshold 1.0) was 3.25 µM.

As for `CN1C(=O)c2cc(NC(=O)c3cccc(F)c3)ccc2OC[C@H]2O[C@@H](CC(=O)NCc3ccccc3)CC[C@H]21`, the AbsAC1 (concentration giving Tm-shift threshold 1.0) was 3.24 µM.

In the case of `O=C(Nc1ccc(S(=O)(=O)N2CCCC2)cc1)c1ccccc1`, the AbsAC1 (concentration giving Tm-shift threshold 1.0) was 8.57 µM.

Regarding `N#CC(C#N)=C1NC(N)=C(C#N)C(c2ccccc2)=C1C#N`, the AbsAC1 (concentration giving Tm-shift threshold 1.0) is 4.02 µM.

On to `O=[N+]([O-])c1cccc(S(=O)(=O)Nc2ccc(-c3ccc(N4CCCC4)nn3)cc2)c1`, for which the AbsAC1 (concentration giving Tm-shift threshold 1.0) is 19.1 µM.

As to `Cc1ccc(NC(=O)c2sc3ncn(CC(=O)N4CCN(c5ccccn5)CC4)c(=O)c3c2C)cc1F`, the AbsAC1 (concentration giving Tm-shift threshold 1.0) was 10.6 µM.

As for `CC(C)CC(=O)Nc1ccc(C(=O)CN2C(=O)NC3(CCOc4ccccc43)C2=O)cc1` (centres undefined), the AbsAC1 (concentration giving Tm-shift threshold 1.0) was 6.42 µM.

Consider `O=S(=O)(Nc1cc(Cl)ccc1-n1cncn1)c1ccc(F)cc1`, for which the AbsAC1 (concentration giving Tm-shift threshold 1.0) is 15.2 µM.

For `COc1cc(OC)cc(C(=O)Nc2ccc(S(=O)(=O)Nc3nc(C)cc(C)n3)cc2)c1`, the AbsAC1 (concentration giving Tm-shift threshold 1.0) was 15.5 µM.

For `CCOC(=O)c1sc(NC(=O)Nc2ccccc2)cc1C`, the AbsAC1 (concentration giving Tm-shift threshold 1.0) was 10.2 µM.

For the compound `Cc1cccc(S(=O)(=O)N2C[C@@H](O)COC[C@H]3O[C@H](CC(=O)Nc4ccc(-c5ccccc5)cc4)CC[C@@H]32)c1`, the AbsAC1 (concentration giving Tm-shift threshold 1.0) is 16.6 µM.

For `O=C(Cn1cc(COc2ccc(Br)cc2)nn1)c1ccc(O)cc1`, the AbsAC1 (concentration giving Tm-shift threshold 1.0) is 7.63 µM.

With `Cc1ccc(C(=O)Nc2nc(=O)n(C(=O)C3CC3)s2)cc1`, the AbsAC1 (concentration giving Tm-shift threshold 1.0) was 11.1 µM.

For `COc1cccc(C(=O)Nc2cccc(NC(=O)c3cccs3)c2)c1`, the AbsAC1 (concentration giving Tm-shift threshold 1.0) is 1.72 µM.

As for `C/C(=N\NC(=O)COc1ccc(C)cc1C(C)C)c1cc2ccccc2o1`, the AbsAC1 (concentration giving Tm-shift threshold 1.0) is 20.9 µM.

Regarding `COc1cccc(NC(=O)N(C)C[C@@H]2Oc3cc(-c4ccccc4F)ccc3S(=O)(=O)N([C@H](C)CO)C[C@@H]2C)c1`, the AbsAC1 (concentration giving Tm-shift threshold 1.0) is 2.04 µM.

For `O=C(Nc1ccc(F)cc1)N[C@H]1CC[C@@H](CCn2cc(-c3ccccc3F)nn2)O[C@H]1CO`, the AbsAC1 (concentration giving Tm-shift threshold 1.0) is 10.5 µM.

Take `O=C(CN1C(=O)NC2(CCOc3ccccc32)C1=O)Nc1ccc(Br)cc1F` (centres undefined): the AbsAC1 (concentration giving Tm-shift threshold 1.0) was 16.6 µM.

Turning to `COc1cc(/C=C2/S/C(=N/S(=O)(=O)Cc3ccccc3)NC2=O)c([N+](=O)[O-])cc1OC`, the AbsAC1 (concentration giving Tm-shift threshold 1.0) was 3.72 µM.

On to `N/C(=N\OCC(=O)Nc1ccc(F)c(Cl)c1)c1ccccc1`, for which the AbsAC1 (concentration giving Tm-shift threshold 1.0) was 4.58 µM.

As to `COc1cccc(NC(=O)N(C)C[C@@H]2Oc3cc(-c4ccccc4F)ccc3S(=O)(=O)N([C@@H](C)CO)C[C@@H]2C)c1`, the AbsAC1 (concentration giving Tm-shift threshold 1.0) was 2.97 µM.

Consider `Cc1cc(C)cc(NC(=O)CN2C(=O)NC(Cc3c[nH]c4ccccc34)C2=O)c1` (centres undefined), for which the AbsAC1 (concentration giving Tm-shift threshold 1.0) is 13 µM.

For `O=C(NN1C(=O)CSC1=S)C(=O)NN1C(=O)CSC1=S`, the AbsAC1 (concentration giving Tm-shift threshold 1.0) was 5.24 µM.

Consider `O=[N+]([O-])c1ccc(Nc2ccccc2)nc1`, for which the AbsAC1 (concentration giving Tm-shift threshold 1.0) is 5.31 µM.

As for `O=c1oc(-c2ccc(O)c(O)c2)cc2cc(O)cc(O)c12`, the AbsAC1 (concentration giving Tm-shift threshold 1.0) was 4.66 µM.

Regarding `CCc1ccc(N2CC(C(=O)OCC(=O)Nc3ccc(C(C)=O)cc3)CC2=O)cc1` (centres undefined), the AbsAC1 (concentration giving Tm-shift threshold 1.0) was 17.7 µM.

Take `COC(=O)C[C@H]1CC[C@@H]2[C@@H](COc3ccc(NC(=O)Nc4cccc(C#N)c4)cc3C(=O)N2C)O1`: the AbsAC1 (concentration giving Tm-shift threshold 1.0) is 7.79 µM.

For `CC(=O)Nc1ccc(S(=O)(=O)NCCc2c[nH]c3ccc(C)cc23)cc1`, the AbsAC1 (concentration giving Tm-shift threshold 1.0) is 21.6 µM.

Take `O=C1C(Cl)=C(NS(=O)(=O)c2ccc([N+](=O)[O-])cc2)C(=O)c2ccccc21`: the AbsAC1 (concentration giving Tm-shift threshold 1.0) was 7.4 µM.

In the case of `O=C(Nc1ccc(F)cc1)N[C@@H]1CC[C@H](CCn2cc(-c3ccc(F)cc3)nn2)O[C@H]1CO`, the AbsAC1 (concentration giving Tm-shift threshold 1.0) was 13 µM.

In the case of `O=C(Nc1ccc2c(c1)OCO2)c1ccc(NC2CC2)c([N+](=O)[O-])c1`, the AbsAC1 (concentration giving Tm-shift threshold 1.0) was 17.8 µM.

With `CN1C(=O)c2cc(NC(=O)c3cccc(F)c3)ccc2OC[C@@H]2O[C@H](CC(=O)N3CCc4ccccc4C3)CC[C@@H]21`, the AbsAC1 (concentration giving Tm-shift threshold 1.0) is 17.2 µM.

As to `O=C(NCC1CC1)c1onc(CSc2ccc(F)cc2)c1C(=O)NCC1CC1`, the AbsAC1 (concentration giving Tm-shift threshold 1.0) was 2.58 µM.

Regarding `O=[N+]([O-])c1ccc2nc(NS(=O)(=O)c3ccccc3[N+](=O)[O-])sc2c1`, the AbsAC1 (concentration giving Tm-shift threshold 1.0) was 6.33 µM.

With `O=C(N/N=C/c1ccncc1)c1cccc(NC(=O)c2ccc(Cl)cc2)c1`, the AbsAC1 (concentration giving Tm-shift threshold 1.0) was 9.27 µM.

Take `C[C@H](CO)N1C[C@H](C)[C@H](CN(C)C(=O)Nc2ccc3c(c2)OCO3)Oc2cc(C3=CCCC3)ccc2S1(=O)=O`: the AbsAC1 (concentration giving Tm-shift threshold 1.0) is 36.2 µM.

In the case of `Cc1ccc(S(=O)(=O)N(C)C[C@@H]2Oc3cc(Br)ccc3S(=O)(=O)N([C@@H](C)CO)C[C@H]2C)cc1`, the AbsAC1 (concentration giving Tm-shift threshold 1.0) is 29.2 µM.

For `CC(C)(C)[S@@](=O)N1Cc2cc(C(=O)NCc3ccccc3F)nc(-c3cccc(-c4ccncc4)c3)c2[C@H]1CCO`, the AbsAC1 (concentration giving Tm-shift threshold 1.0) is > 38 µM (inactive).

As for `O=C(CCc1c[nH]c2ccccc12)Nc1ccc(Nc2cccnc2)cc1`, the AbsAC1 (concentration giving Tm-shift threshold 1.0) is 4.36 µM.

Regarding `CCOc1cccc(C(=O)Nc2ccc3[nH]ncc3c2)c1`, the AbsAC1 (concentration giving Tm-shift threshold 1.0) was 3.89 µM.

For `O=S(=O)(ON(c1ccccc1)S(=O)(=O)c1ccccc1)c1ccccc1`, the AbsAC1 (concentration giving Tm-shift threshold 1.0) was 14 µM.

Turning to `COc1cc(NC(=O)c2cnc(N)o2)cc(C(=O)Nc2cccc(C(F)(F)F)c2)c1`, the AbsAC1 (concentration giving Tm-shift threshold 1.0) is 3.44 µM.

Take `Cc1[nH]c2ccc(C(=O)OCC(=O)Nc3cccc(S(N)(=O)=O)c3)cc2c1C`: the AbsAC1 (concentration giving Tm-shift threshold 1.0) was 2.86 µM.

Consider `COc1ccc2c(CC(=O)NNC(=O)c3ccc(O)cc3)coc2c1`, for which the AbsAC1 (concentration giving Tm-shift threshold 1.0) is 3.22 µM.

For `COc1cc(-c2nc(C)c(C(C)=O)n2O)ccc1OCC(=O)Nc1ccc(Cl)cc1`, the AbsAC1 (concentration giving Tm-shift threshold 1.0) is 10.9 µM.

Take `Cc1noc(NC(=O)c2cccc(Cl)c2Cl)c1C#N`: the AbsAC1 (concentration giving Tm-shift threshold 1.0) is 32.7 µM.

Turning to `CC1([N+](=O)[O-])COP(=O)(NC2CC2)OC1` (centres undefined), the AbsAC1 (concentration giving Tm-shift threshold 1.0) was 8.33 µM.

With `CCn1c2ccccc2c2cc(/C=N/NC(=O)c3ccncc3)ccc21`, the AbsAC1 (concentration giving Tm-shift threshold 1.0) is 25 µM.

Take `Nc1ccc(C(=O)Nc2ccc(OC(F)(F)C(F)F)c(NC(=O)c3ccc(N)cc3)c2)cc1`: the AbsAC1 (concentration giving Tm-shift threshold 1.0) is 6.85 µM.

Turning to `NS(=O)(=O)c1ccc(NC(=O)Nc2cccc(Cl)c2)cc1`, the AbsAC1 (concentration giving Tm-shift threshold 1.0) is 16.8 µM.

Turning to `O=C(Nc1ccccc1)N1C[C@H]2[C@@H](c3ccccc31)[C@@H](CO)N2C(=O)c1ccncc1`, the AbsAC1 (concentration giving Tm-shift threshold 1.0) was 41.2 µM.

On to `COc1cccc(NC(=O)CN(C)C(=O)c2ccc(N3CCCCC3)c([N+](=O)[O-])c2)c1`, for which the AbsAC1 (concentration giving Tm-shift threshold 1.0) is 11.4 µM.

For `COc1cccc(NC(=O)CN(C)C(=O)c2ccc(NC3CC3)c([N+](=O)[O-])c2)c1`, the AbsAC1 (concentration giving Tm-shift threshold 1.0) was 5.08 µM.

For `O=S(=O)(O)c1cccc2cccc(Nc3ccccc3)c12`, the AbsAC1 (concentration giving Tm-shift threshold 1.0) is 9.29 µM.

Take `Oc1cc(O)cc(-c2cc3ccc(O)cc3o2)c1`: the AbsAC1 (concentration giving Tm-shift threshold 1.0) is 14.9 µM.

For the compound `O=S(=O)(Nc1cccc(-n2cnnn2)c1)c1ccc(Cl)cc1`, the AbsAC1 (concentration giving Tm-shift threshold 1.0) is 27.6 µM.

Consider `COc1ccccc1-c1ccc2c(c1)O[C@@H](CN(C)C(=O)Nc1cccc(F)c1)[C@H](C)CN([C@@H](C)CO)S2(=O)=O`, for which the AbsAC1 (concentration giving Tm-shift threshold 1.0) was 20.6 µM.

`CO[C@@H](CN(C)S(=O)(=O)c1cccc(Cl)c1)[C@@H](C)CN([C@H](C)CO)S(=O)(=O)c1cccc(Cl)c1`: the AbsAC1 (concentration giving Tm-shift threshold 1.0) was 10.3 µM.

For `COc1ccccc1NC(=O)N[C@@H]1CC[C@@H](CCn2cc(-c3ccccc3OC)nn2)O[C@@H]1CO`, the AbsAC1 (concentration giving Tm-shift threshold 1.0) was 4.76 µM.

With `CC(C)(C)S(=O)(=O)/C(C#N)=N/Nc1ccc(Cl)cc1`, the AbsAC1 (concentration giving Tm-shift threshold 1.0) is 25.7 µM.

`O=C(N/N=C/c1c[nH]c2ccccc12)c1ccc(O)c(O)c1`: the AbsAC1 (concentration giving Tm-shift threshold 1.0) was 3.74 µM.

`CO[C@@H](CN(C)S(=O)(=O)c1cccc(Cl)c1)[C@@H](C)CN([C@@H](C)CO)S(=O)(=O)c1cccc(Cl)c1`: the AbsAC1 (concentration giving Tm-shift threshold 1.0) was 5.29 µM.

On to `COc1cccc(S(=O)(=O)N2C[C@@H](O)COC[C@@H]3O[C@@H](CC(=O)Nc4ccccc4)CC[C@H]32)c1`, for which the AbsAC1 (concentration giving Tm-shift threshold 1.0) is 3.38 µM.

As to `CO[C@H](CN(C)S(=O)(=O)c1cccc(Cl)c1)[C@H](C)CN([C@H](C)CO)S(=O)(=O)c1cccc(Cl)c1`, the AbsAC1 (concentration giving Tm-shift threshold 1.0) was 14.1 µM.

As to `COc1cc(/C=N/NC(=O)c2cc3ccccc3[nH]2)ccc1O`, the AbsAC1 (concentration giving Tm-shift threshold 1.0) is 1.49 µM.

Turning to `O=C(NC1CC1)c1cccc(NC(=O)c2cnn(-c3ccccc3)n2)c1`, the AbsAC1 (concentration giving Tm-shift threshold 1.0) is 11.7 µM.

`CO[C@@H](CN(C)S(=O)(=O)c1ccc(Cl)cc1)[C@@H](C)CN([C@H](C)CO)S(=O)(=O)c1cccc(Cl)c1`: the AbsAC1 (concentration giving Tm-shift threshold 1.0) is 10.7 µM.
